Measured values as given in patent US11242327B2, “Analgesic compounds” (RECURIUM IP HOLDINGS, LLC, priority 2017, dated 2022).
Structures can show the parent of a compound that is named as a salt. Where two headings read alike, the source gives them in different places.

Experiments:
Assay type in all cases: in vivo
male Sprague-Dawley rats [1] = test: Post-Incisional (Brennan) Pain Test; conditions: rat, subcutaneously, 10 mg/kg
Description: Incisional pain was induced in non-fasted male Sprague-Dawley rats weighing 180-300 g by making a 1-cm plantar incision in the left hind paw and is designed to mimic pain and sensitivity similar to what is reported by patients after surgery. Dosing occurred at the time of incision and spontaneous pain was measured 4 and 24 hours post-dosing using a cumulative pain score. The unrestrained animals were placed on a metal mesh platform and allowed to acclimate for about 15 min/ Each animal was closely observed during a 1-min period repeated every 5 min for 1 h (12 times total). Depending on the position in which the foot was found during the scoring period, a score of 0, 1, or 2 was given. Full weight bearing of the foot (score=0) was present if the skin on the plantar surface of the paw wound was blanched or distorted by the mesh. If the foot was completely off the mesh, or one or more instances of licking or flinching was observed, a score of 2 was recorded and the licking or flinching was noted but not counted. If the plantar surface of the paw touched the mesh without blanching or distorting, a score of 1 was given. The sum of the 12 scores obtained during the 1 h session was calculated (maximum score=24) for each animal. Observations were made during hours 4 and 24. Test articles were administered orally at concentrations of 10, 30 or 100 mg/kg and ketoprofen was administered subcutaneously at a concentration of 10 mg/kg. The control group received the vehicle (sterile water). In Table 6, ‘A’ designates a cumulative pain score of ≤11, ‘B’ designates >11 and ≤16, and ‘C’ designates >16.
The results provided in Table 6 are for oral administration in rats.

[2] = Bioavailability Test (rat pharmacokinetics); conditions: for F: PO 30 mg/kg vs IV 3 mg/kg; for Vd: read-out: Vdss
Description: Oral bioavailability of compounds of Formulae (Ie), (Ih), (Ik), and (Ir), or a pharmaceutically acceptable salt of any of the foregoing, were evaluated in fasted male Sprague-Dawley (SD) rats weighing 200-225g. Compounds were dosed at 3 mg/kg (IV) and 30 mg/kg (PO). Unless otherwise noted, compounds were dissolved in 0.9% saline for IV dosing and 100% sterile water for PO dosing. Pharmacokinetic parameters were determined using Phoenix WinNonlin (v7.0). […]

male Sprague-Dawley rats [3] = test: Formalin Paw Test, rat, oral; conditions: 30 mg/kg; for Early Phase, seconds of paw licking: early/acute phase (0-10 minutes); for Late Phase, seconds of paw licking: late/tonic phase (10-35 minutes)
Description: One test compound or the vehicle was administered to each rat or mouse in each test group (8 rats or mice per group). Non-fasted male Sprague-Dawley rats weighing 200-225 g or non-fasted male ICR mice weighing 23±3 g were used. […] Responses were measured every 5 minutes after the formalin injection for 35 minutes. The results in Table 2 are for oral administration in rat and the results in Table 3 are for intraperitoneal administration in mouse. In Tables 2 and 3, 'A' designates <70 seconds of paw licking, 'B' designates >70 and <165 seconds of paw licking, and 'C' designates >165 seconds of paw licking.

male Sprague-Dawley rats [4] = test: UVB Inflammatory Pain Test (thermal hyperalgesia); conditions: rat, oral; for paw withdrawal latency, 1 h: 1 h after dosing; for paw withdrawal latency, 2 h: 2 h after dosing; for paw withdrawal latency, 4 h: 4 h after dosing
Description: UVB irradiation to the surface of the hind paw was used to induce cutaneous inflammatory pain in non-fasted male Sprague-Dawley rats weighing 175-300 g. On Day −3, animals were restrained and the plantar surface of the left hind paw was exposed to 350 mJoules/cm^2 of UVB irradiation using a narrow band UVB light source (Daavlin®, Bryan, Ohio). Following UVB irradiation, animals were returned to their home cage. Thermal hyperalgesia was assessed prior to dosing and approximately 1, 2, and 4 hours after dosing on Day 0 using a radiant heat plantar test apparatus (IITC Life Sciences©; Woodland Hills, Calif.). Animals were placed in individual acrylic chambers on a glass platform warmed to 30±2° C. and allowed to acclimate to their surroundings for a minimum of 15 minutes before testing. The stimulus was presented to the plantar surface and the timer was activated. The stimulus intensity was set such that pre-injury paw withdrawal latencies were approximately 12-18 seconds. Paw withdrawal latency values were recorded at the first observed nocifensive behavior (paw withdrawal, flinching, biting and/or licking). Three paw withdrawal latencies were measured for each hind paw per time point. The mean of the 3 values was taken as the paw withdrawal latency for that time point. A maximum cutoff latency of 30 seconds was used to prevent injury to the animal. The mean and standard error of the mean (SEM) were determined for each paw for each treatment group at each time point. Test compounds were administered orally at concentrations of 3, 10, 30 or 100 mg/kg; celecoxib was administered orally at a concentration of 30 mg/kg; and acetaminophen was administered orally at a concentration of 300 mg/kg. The control group received the vehicle (sterile water). In Table 4, ‘A’ designates >8 seconds of paw withdrawal latency, ‘B’ designates >6 and <8 seconds of paw withdrawal latency, and ‘C’ designates <6 seconds of paw withdrawal latency.
The results provided in Table 4 are for oral administration in rats. […] Furthermore, while acetaminophen was dosed at 300 mg/kg, compounds of Formulae (Ie), (Ih) and (Ik), or a pharmaceutically acceptable salt of any of the foregoing, were dosed at 3 mg/kg, 10 mg/kg and 100 mg/kg.

male Sprague-Dawley rats [5] = test: Spinal Nerve Ligation (SNL) Neuropathic Pain Test; conditions: rat, oral, 100 mg/kg
Description: Neuropathy was induced in non-fasted male Sprague-Dawley rats weighing 75-100 g by surgically ligating the 4th and 5th lumbar spinal nerves (L4 and L5), a procedure also known as spinal nerve ligation (SNL). Animals were placed in individual acrylic chambers on a metal mesh surface and allowed to acclimate to their surroundings for a minimum of 15 minutes before testing. Mechanical sensitivity was assessed using 8 Semmes-Weinstein filaments (Stoelting©; Wood Dale, Ill., USA) with varying stiffness (0.4, 0.6, 1.0, 2.0, 4.0, 6.0, 8.0, and 15 g) according to an up-down method to determine 50% response thresholds. Each filament was presented perpendicular to the plantar surface with sufficient force to cause slight buckling against the paw and held for approximately 6 seconds or until a positive response is noted (paw sharply withdrawn). Testing was initiated with the 2.0 g filament. In the absence of a paw withdrawal response, the next stronger stimulus was presented. In the event of paw withdrawal, the next weaker stimulus was used. This process was repeated until 4 responses after the initial change in response (no response to positive response or positive response to no response) were obtained. […] The 50% response threshold was calculated using the formula: 50% response threshold (g)=(10^(Xf+kδ))/10,000;
Xf=value (in log units) of the final von Frey filament used;
k=tabular value for the pattern of positive/negative responses (See Chaplan, et al. “Quantitative Assessment of Tactile Allodynia in the Rat Paw” J. Neurosci. Meth. 53.1 (1994): 56-63);
[…] =mean difference (in log units) between stimuli.
The mean and standard error of the mean (SEM) were determined for each paw for each treatment group at each time point. Thresholds were determined prior to surgery and again 14 days later. After 14 days, test or control compounds were administered and thresholds were again determined 1, 2, and 4 hours after compound administration. Median response thresholds in compound-treated animals were compared to those in vehicle treated animals to determine anti-allodynic efficacy of test and control compounds. Test compounds were administered orally at concentrations of 10, 30 or 100 mg/kg and gabapentin was administered orally at a concentration of 100 mg/kg. The control group received the vehicle (sterile water). In Table 7, ‘A’ designates a 50% threshold of ≥8 grams, ‘B’ designates a 50% threshold of ≥6 and <8 grams, and ‘C’ designates a 50% threshold of <6 grams.
The results provided in Table 7 are for oral administration in rats.

[6] = male, Sprague-Dawley, in vivo, IV 3 mg/kg, 0.9% saline
[7] = male, Sprague-Dawley, in vivo, PO 30 mg/kg, sterile water
[8] = male, Sprague-Dawley, in vivo, IV 3 mg/kg, DMSO, PEG400, and 30% HPβCD (5/20/75)
[9] = male, Sprague-Dawley, in vivo, PO 30 mg/kg, PEG400, PVP, Tween 80, 0.5% CMC in water (9/0.5/0.5/90)

## CC(C(=O)O)c1cccc(C(=O)c2ccccc2)c1 (stereo not shown) [Ketoprofen, reference compound]
Male Sprague-Dawley rats [1]; 4 h post-dosing
  cumulative pain score, 4 h: B (>11 and ≤16)
Male Sprague-Dawley rats [1]; 24 h post-dosing
  cumulative pain score, 24 h: A (a cumulative pain score of ≤11)

## O=C(CO)NC12CC(C(F)(F)F)(C1)C2 [Compound 7, 2-Hydroxy-N-(3-(trifluoromethyl)bicyclo[1.1.1]pentan-1-yl)acetamide]
[2]
  F: 138%
[2]; [6]
  AUC(0-inf): 9 µM·h
  clearance: 27 mL/min/kg
  half-life: 2.3 h
  Vd: 2.5 L/kg
[2]; [7]
  AUC(0-inf): 119 µM·h
  Cmax: 67 µM
  Tmax: 0.19 h
  half-life: 2.5 h
Male Sprague-Dawley rats [3]
  Early Phase, seconds of paw licking: A (<70 seconds of paw licking)
  Late Phase, seconds of paw licking: B (>70 and <165 seconds of paw licking)
Male Sprague-Dawley rats [4]; 3 mg/kg
  paw withdrawal latency, 1 h: B (>6 and <8 seconds of paw withdrawal latency)
  paw withdrawal latency, 2 h: B (>6 and <8 seconds of paw withdrawal latency)
  paw withdrawal latency, 4 h: B (>6 and <8 seconds of paw withdrawal latency)
Male Sprague-Dawley rats [4]; 10 mg/kg
  paw withdrawal latency, 1 h: C (<6 seconds of paw withdrawal latency)
  paw withdrawal latency, 2 h: C (<6 seconds of paw withdrawal latency)
  paw withdrawal latency, 4 h: B (>6 and <8 seconds of paw withdrawal latency)
Male Sprague-Dawley rats [4]; 30 mg/kg
  paw withdrawal latency, 1 h: B (>6 and <8 seconds of paw withdrawal latency)
  paw withdrawal latency, 2 h: B (>6 and <8 seconds of paw withdrawal latency)
  paw withdrawal latency, 4 h: B (>6 and <8 seconds of paw withdrawal latency)
Male Sprague-Dawley rats [4]; 100 mg/kg
  paw withdrawal latency, 1 h: C (<6 seconds of paw withdrawal latency)
  paw withdrawal latency, 2 h: C (<6 seconds of paw withdrawal latency)
  paw withdrawal latency, 4 h: B (>6 and <8 seconds of paw withdrawal latency)

## CC(F)(F)c1csc(C23CC(N)(C2)C3)n1 [Compound 25, 3-(4-(1,1-difluoroethyl)thiazol-2-yl)bicyclo[1.1.1]pentan-1-amine hydrochloride]
[2]; vehicles of footnote a
  F: 115%
[2]; [8]
  AUC(0-inf): 13 µM·h
  clearance: 17 mL/min/kg
  half-life: 3.7 h
  Vd: 3.2 L/kg
[2]; [9]
  Cmax: 24 µM
  Tmax: 1.2 h
[2]; male, Sprague-Dawley, in vivo, PO 30 mg/kg, PEG400, PVP, Tween 80, 0.5% CMC in water (9/0.5/0.5/90), read-out: AUC24h
  AUC(0-t): 144 µM·h
Male Sprague-Dawley rats [3]
  Early Phase, seconds of paw licking: A (<70 seconds of paw licking)
  Late Phase, seconds of paw licking: A (<70 seconds of paw licking)

## NCC1(CC(=O)O)CCCCC1 [Gabapentin, reference compound]
Male Sprague-Dawley rats [5]; 1 h after administration
  50% response threshold, 1 h: B (a 50% threshold of ≥6 and <8 grams)
Male Sprague-Dawley rats [5]; 2 h after administration
  50% response threshold, 2 h: A (a 50% threshold of ≥8 grams)
Male Sprague-Dawley rats [5]; 4 h after administration
  50% response threshold, 4 h: A (a 50% threshold of ≥8 grams)

## Cl.O=C(O)CNC12CC(C(F)(F)F)(C1)C2 [Compound 6, (3-(trifluoromethyl)bicyclo[1.1.1]pentan-1-yl)glycine hydrochloride]
[2]
  F: 134%
[2]; [6]
  AUC(0-inf): 1.8 µM·h
  clearance: 121 mL/min/kg
  half-life: 0.15 h
  Vd: 0.79 L/kg
[2]; [7]
  AUC(0-inf): 29 µM·h
  Cmax: 32 µM
  Tmax: 0.22 h
  half-life: 1.6 h
Male Sprague-Dawley rats [3]
  Early Phase, seconds of paw licking: A (<70 seconds of paw licking)
  Late Phase, seconds of paw licking: B (>70 and <165 seconds of paw licking)
Male Sprague-Dawley rats [4]; 3 mg/kg
  paw withdrawal latency, 1 h: C (<6 seconds of paw withdrawal latency)
  paw withdrawal latency, 2 h: B (>6 and <8 seconds of paw withdrawal latency)
  paw withdrawal latency, 4 h: A (>8 seconds of paw withdrawal latency)
Male Sprague-Dawley rats [4]; 10 mg/kg
  paw withdrawal latency, 1 h: B (>6 and <8 seconds of paw withdrawal latency)
  paw withdrawal latency, 2 h: B (>6 and <8 seconds of paw withdrawal latency)
  paw withdrawal latency, 4 h: B (>6 and <8 seconds of paw withdrawal latency)
Male Sprague-Dawley rats [4]; 30 mg/kg
  paw withdrawal latency, 1 h: A (>8 seconds of paw withdrawal latency)
  paw withdrawal latency, 2 h: B (>6 and <8 seconds of paw withdrawal latency)
  paw withdrawal latency, 4 h: B (>6 and <8 seconds of paw withdrawal latency)
Male Sprague-Dawley rats [4]; 100 mg/kg
  paw withdrawal latency, 1 h: A (>8 seconds of paw withdrawal latency)
  paw withdrawal latency, 2 h: A (>8 seconds of paw withdrawal latency)
  paw withdrawal latency, 4 h: B (>6 and <8 seconds of paw withdrawal latency)
